Read-outs that look alike come from different tables or passages of the source.
Experiments:
Assay type in all cases: cell-based
MV-4-11 = assay: Cell growth suppression test in monotherapy (resazurin); conditions: Homo sapiens, read-out: Cell growth suppression activity IC50
Procedure: (§1) A human acute monocytic leukemia cell line (THP-1), a human acute myeloid leukemia cell line (MV-4-11), a human acute monocytic leukemia cell line (MOLM-14), and a human erythroleukemia cell line (TF-1) were cultured in a 5% CO2 incubator using a RPMI1640 medium (Roswell Park Memorial Institute medium, nacalai tesque) comprising 10% Fetal bovine serum (Thermo Scientific, SIGMA-ALDRICH, or Cytiva) and 1% penicillin/streptomycin (nacalai tesque).
(§2) THP-1 cells and MV-4-11 cells at 2×10^4 cells/well, and MOLM-14 cells and TF-1 cells at 5×10^3 cells/well were each seeded to a 96 well plate (cell plate), and thereto was added a test compound diluted with the medium so that the final concentration thereof would be 3 nM to 30 µM (final DMSO concentration: 0.3%). After the resulting mixture was cultured for 72 hours, a resazurin reagent (nacalai tesque) was added thereto. After 3 hours, a fluorescence at an excitation wavelength of 560 nm and a fluorescence wavelength of 590 nm was measured, and each IC50 value of the inhibitory activity was calculated by a criterion in which a well without the compound and without the cells was set to be 100%, and a well without the compound and with cells was set to be 0%.

THP-1 = assay: as above; conditions: Homo sapiens, read-out: Cell growth suppression activity IC50
Procedure: as §1, §2

MOLM-14 = assay: as above; conditions: Homo sapiens, read-out: Cell growth suppression activity IC50
Procedure: as §1, §2

TF-1 = assay: as above; conditions: Homo sapiens, read-out: Cell growth suppression activity IC50
Procedure: as §1, §2

THP-1 cells = assay: Dose-response test of DNA methyltransferase inhibitor in the presence of compound (I); conditions: Homo sapiens, read-out: THP-1 cell growth suppression activity azacitidine IC50 (converted)
Procedure: as §2
Changes in the IC50 value of a DNA methyltransferase inhibitor (azacitidine) in the presence of the compound (I) were investigated.

[1] = MV4-11, MV-4-11 cells, monotherapy, cultured for 72 hours
[2] = THP-1 cells, monotherapy, cultured for 72 hours
[3] = MOLM-14 cells, monotherapy, cultured for 72 hours
[4] = TF-1 cells, monotherapy, cultured for 72 hours

| IC50 (THP-1 cells; THP-1, Concentration of compound (I) 0 µM (DMSO-added control)) [nM] | IC50 (THP-1 cells; THP-1, Concentration of compound (I) 3 µM) [nM] | IC50 (MV-4-11; [1]) [nM] | IC50 (THP-1; [2]) [nM] | IC50 (MOLM-14; [3]) [nM] | Compound | IC50 (MV-4-11; MV4-11, 72 h) [nM] | IC50 (THP-1; THP-1, 72 h) [nM] | IC50 (MOLM-14; MOLM-14, 72 h) [nM] | IC50 (TF-1; TF-1, 72 h) [nM] | IC50 (TF-1; [4]) [nM] |
| --- | --- | --- | --- | --- | --- | --- | --- | --- | --- | --- |
| – | – | – | – | – | Nc1ncn([C@H]2C[C@H](O)[C@@H](CO)O2)c(=O)n1 [Decitabine, decitabine] | 540 | > 30000 | 160 | 120 | – |
| 6930 | 2030 | 1200 | 7390 | 2850 | Nc1ncn([C@@H]2O[C@H](CO)[C@@H](O)[C@H]2O)c(=O)n1 [Azacitidine, azacitidine] | – | – | – | – | 1920 |
| – | – | 190 | 4070 | 160 | CCOC(=O)C1=C(NN2CCN(CC(F)(F)F)CC2)O/C(=C\c2c[nH]c3ncccc23)C1=O [Compound (I), ethyl 5-[(1H-pyrrolo[2,3-b]pyridin-3-yl)methylene]-4-oxo-2-{[4-(2,2,2-trifluoroethyl)piperazinyl]amino}-4,5-dihydrofuran-3-carboxylate] | – | – | – | – | 340 |

— patent publication EP4785942A1, “NOVEL COMBINATION THERAPY FOR BLOOD CANCER” (Carna Biosciences, Inc., priority 2023, dated 2025)
